One test has as its system HCT116 MTAP−/−. The experiment in a line: Inhibition of cellular proliferation (Cell Titer Glo), HCT116 MTAP−/−. The format is cell-based, human. Particulars: Homo sapiens, HCT-116, 96 h, 4 days, IC50 score, read-out: 4 Day Relative Growth Inhibition (MTAP −/−; Example 277). The procedure, abridged: (§1)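 Proliferation was read as ATP luminescence (Cell Titer Glo) after a 4-day, 37 °C exposure of HCT116 cells differing only in MTAP deletion status. Dosing was 10 points, 3-fold steps, added 24 h post-plating; signal minus blank, relative to 0.2% DMSO control wells, was plotted against log molar concentration.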

Another test deals with T1, MAT2A homodimer (Homo sapiens, UniProt P31153).
T1 construct: inferred from Ni sepharose purification and imidazole elution; made in house; host or cells: Sf9 insect cells, recombinant baculovirus (Bac to Bac, pFASTBAC1)
The experiment in a line: Biochemical assay: inhibition of MAT2A (phosphate release, PiColorLock Gold). Particulars: MAT2A IC50 score; read-out: Enzyme Inhibition (Example 275). The procedure, abridged: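 Phosphate formed alongside SAM was read with PiColorLock Gold and quantified against a potassium phosphate standard curve. Reactions ran 60 min at 25 °C after adding a substrate mix of 500 μM ATP and 400 μM L-methionine (mix concentrations). Compound had first been preincubated 60 min with recombinant Sf9-derived MAT2A homodimer ([…]) in pH 8.0 Tris buffer containing MgCl2, KCl, EDTA and BSA.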

The next test concerns HCT116 MTAP+/+. The experiment in a line: Inhibition of cellular proliferation (Cell Titer Glo), HCT116 MTAP+/+. The format is cell-based, human. The conditions noted are these: Homo sapiens, HCT-116, 96 h, 4 days, IC50 score, read-out: 4 Day Relative Growth Inhibition (MTAP +/+; Example 277). The procedure, abridged:
as §1

Test [1] deals with SAM in HCT116 human colon carcinoma cell line engineered to delete the MTAP gene (MTAP −/−). The experiment in a line: Cellular assay of target engagement (SAM) by LC-MS/MS. The format is cell-based. Particulars: Homo sapiens, HCT-116, 72 h, IC50 score, read-out: Cell 72 h SAM Inhibition (MTAP −/−; Example 276). The procedure, abridged: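 Intracellular SAM, the MAT2A product, was measured by quantitative LC-MS/MS against a d3-SAM standard in methanol/acetic acid extracts. Extracts came from HCT116 MTAP −/− cells exposed for 72 h at 37 °C to a ten-point, threefold dilution series of compound, added one day after seeding.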

T1 sequence (P31153 whole entry): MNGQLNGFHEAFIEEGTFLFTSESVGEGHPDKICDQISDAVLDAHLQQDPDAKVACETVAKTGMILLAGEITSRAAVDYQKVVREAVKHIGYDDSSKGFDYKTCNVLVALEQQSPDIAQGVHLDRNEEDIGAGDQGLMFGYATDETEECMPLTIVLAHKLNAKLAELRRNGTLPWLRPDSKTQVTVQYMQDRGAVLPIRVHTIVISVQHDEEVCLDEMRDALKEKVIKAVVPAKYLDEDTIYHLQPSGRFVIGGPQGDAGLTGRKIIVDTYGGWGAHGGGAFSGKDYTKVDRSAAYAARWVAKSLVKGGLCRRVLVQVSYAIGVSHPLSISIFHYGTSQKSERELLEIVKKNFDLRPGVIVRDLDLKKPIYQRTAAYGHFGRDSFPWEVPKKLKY

In the case of `CCOc1ccc2cn(-c3ccc4nn(C)cc4c3)c(=O)c(-c3ccc(-c4c[nH]cn4)cc3)c2n1` [Example 224, 8-(4-(1H-imidazol-4-yl)phenyl)-2-ethoxy-6-(2-methyl-2H-indazol-5-yl)-1,6-naphthyridin-7(6H)-one], the IC50 in the test on HCT116 MTAP−/− was greater than 10 µM; at MAT2A homodimer, less than 0.1 µM; in the test with HCT116 MTAP+/+, greater than 10 µM; in test [1], 0.1 to 1 µM.

As for `CCOc1ccc2cn(-c3ccc4nn(CCS(C)(=O)=O)cc4c3)c(=O)c(-c3ccc(Cl)cc3)c2n1` [Example 225, 8-(4-chlorophenyl)-2-ethoxy-6-(2-(2-(methylsulfonyl)ethyl)-2H-indazol-5-yl)-1,6-naphthyridin-7(6H)-one], the IC50 is 0.1 to 10 µM in the test with HCT116 MTAP−/−, 0.1 to 1 µM at MAT2A homodimer, 0.1 to 10 µM with HCT116 MTAP+/+ and less than 0.1 µM in test [1].

`CCOc1ccc2cn(-c3ccc4ncn(C)c4c3)c(=O)c(-c3ccc(C(F)(F)F)nc3)c2n1` [Example 226, 2-ethoxy-6-(1-methyl-1H-benzo[d]imidazol-6-yl)-8-(6-(trifluoromethyl)pyridin-3-yl)-1,6-naphthyridin-7(6H)-one]: the IC50 with HCT116 MTAP−/− is less than 0.1 µM; at MAT2A homodimer it was less than 0.1 µM; with HCT116 MTAP+/+, 0.1 to 10 µM; in test [1], less than 0.1 µM.

Consider `CCOc1ccc2cn(-c3ccc4ncn(C)c4c3)c(=O)c(-c3ccc(C(F)(F)F)cc3)c2n1` [Example 227, 2-ethoxy-6-(1-methyl-1H-benzo[d]imidazol-6-yl)-8-(4-(trifluoromethyl)phenyl)-1,6-naphthyridin-7(6H)-one], for which the IC50 in the test on HCT116 MTAP−/− is less than 0.1 µM; on MAT2A homodimer, less than 0.1 µM; in the test with HCT116 MTAP+/+, 0.1 to 10 µM; in test [1], less than 0.1 µM.

Take `CCOc1ccc2cn(-c3ccc4ncn(C)c4c3)c(=O)c(-c3ccc(C4CC4)nc3)c2n1` [Example 228, 8-(6-cyclopropylpyridin-3-yl)-2-ethoxy-6-(1-methyl-1H-benzo[d]imidazol-6-yl)-1,6-naphthyridin-7(6H)-one]: the IC50 with HCT116 MTAP−/− was less than 0.1 µM; on MAT2A homodimer, less than 0.1 µM; in the test on HCT116 MTAP+/+, 0.1 to 10 µM; in test [1], less than 0.1 µM.

As to `CCOc1ccc2cn(-c3ccc4ncn(C)c4c3)c(=O)c(-c3ccc(OC(F)F)nc3)c2n1` [Example 229, 8-(6-(difluoromethoxy)pyridin-3-yl)-2-ethoxy-6-(1-methyl-1H-benzo[d]imidazol-6-yl)-1,6-naphthyridin-7(6H)-one], the IC50 in the test on HCT116 MTAP−/− is less than 0.1 µM; on MAT2A homodimer, less than 0.1 µM; in the test with HCT116 MTAP+/+, 0.1 to 10 µM; in test [1], less than 0.1 µM.

With `CCOc1ccc2cn(-c3ccc4ncccc4c3)c(=O)c(-c3ccc(OC(F)F)cc3)c2n1` [Example 230, 8-(4-(difluoromethoxy)phenyl)-2-ethoxy-6-(quinolin-6-yl)-1,6-naphthyridin-7(6H)-one], the IC50 with HCT116 MTAP−/− was less than 0.1 µM; on MAT2A homodimer it was less than 0.1 µM; with HCT116 MTAP+/+ it was 0.1 to 10 µM; in test [1], less than 0.1 µM.

In the case of `CCOc1ccc2cn(-c3ccc4ncccc4c3)c(=O)c(-c3ccc(C4CC4)nc3)c2n1` [Example 231, 8-(6-cyclopropylpyridin-3-yl)-2-ethoxy-6-(quinolin-6-yl)-1,6-naphthyridin-7(6H)-one], the IC50 in the test with HCT116 MTAP−/− was 0.1 to 10 µM; on MAT2A homodimer, less than 0.1 µM; in the test on HCT116 MTAP+/+, greater than 10 µM; in test [1], less than 0.1 µM.

Take `CCOc1ccc2cn(-c3ccc4ncccc4c3)c(=O)c(-c3ccc(OC(F)F)nc3)c2n1` [Example 232, 8-(6-(difluoromethoxy)pyridin-3-yl)-2-ethoxy-6-(quinolin-6-yl)-1,6-naphthyridin-7(6H)-one]: the IC50 was less than 0.1 µM with HCT116 MTAP−/−, less than 0.1 µM on MAT2A homodimer, greater than 10 µM with HCT116 MTAP+/+ and less than 0.1 µM in test [1].

Regarding `Cn1cc2cc(-n3cc4ccc(OCC5CC5)nc4c(-c4ccc(Cl)cc4)c3=O)ccc2n1` [Example 233, 8-(4-chlorophenyl)-2-(cyclopropylmethoxy)-6-(2-methyl-2H-indazol-5-yl)-1,6-naphthyridin-7(6H)-one], the IC50 is less than 0.1 µM with HCT116 MTAP−/−, less than 0.1 µM on MAT2A homodimer, greater than 10 µM with HCT116 MTAP+/+ and less than 0.1 µM in test [1].

The values are drawn from patent publication US11524960B2, “Heterobicyclic inhibitors of MAT2A and methods of use for treating cancer” (AGIOS PHARMACEUTICALS, INC., priority 2018, dated 2022).
